Assay results published in patent publication US4086219A, “Nonapeptides and methods for their production” (Parke, Davis & Company, priority 1976, dated 1978).
Where “and” joins values, the source holds several entries; their conditions need not be identical. Equal values may be shown once. Square brackets hold non-standard residues; d marks the D form. Peptide text beside a SMILES is read from it. * marks the point of attachment. X1 = COc1ccc(COC(=O)*)cc1; Cbz = O=C(OCc1ccccc1)*; Boc = CC(C)(C)OC(=O)*; Bn = c1ccc(C*)cc1

System: LRF-induced luteinizing hormone (LH) release
Test: In vitro LRF antagonist test in rat anterior pituitary cell cultures
Assay type: cell-based
Experimental: Nonapeptides of this invention are screened for LRF antagonist activity in vitro using rat anterior pituitary cell cultures as described by Vale et al. [Endocrinology, 91, 562 (1972)]. The inhibition of LRF-induced luteinizing hormone (LH) release into the culture medium is the endpoint in this in vitro bioassay. Active peptides are then tested in vivo by the procedures of Humphrey et al. [Endocrinology, 92, 1515 (1972)]. Antagonist activity is asessed by the inhibition of LRF-induced LH release in the female rat and LRF-induced ovulation in the rabbit.

[1] = Molar Conc. 1 × 10^-7, LRF 5 × 10^-10, first series (LRF Control 71.56)
[2] = Molar Conc. 1 × 10^-8, LRF 5 × 10^-10, first series (LRF Control 71.56)
[3] = Molar Conc. 1 × 10^-8, LRF 5 × 10^-10, second series of the compound
[4] = Molar Conc. 1 × 10^-9, LRF 5 × 10^-10, second series of the compound
[5] = Molar Conc. 2.5 × 10^-10, LRF 5 × 10^-10, second series of the compound
[6] = Molar Conc. 5 × 10^-10, LRF 5 × 10^-10, second series of the compound
[7] = Molar Conc. 1 × 10^-8, LRF 3.5 × 10^-10
[8] = Molar Conc. 1 × 10^-9, LRF 3.5 × 10^-10
[9] = Molar Conc. 2.5 × 10^-8, LRF 3.5 × 10^-10
[10] = Molar Conc. 2.5 × 10^-9, LRF 3.5 × 10^-10
[11] = Molar Conc. 2.5 × 10^-10, LRF 3.5 × 10^-10
[12] = Molar Conc. 6 × 10^-8, LRF 3.5 × 10^-10
[13] = Molar Conc. 6 × 10^-9, LRF 3.5 × 10^-10
[14] = Molar Conc. 6 × 10^-10, LRF 3.5 × 10^-10
[15] = Molar Conc. 1 × 10^-5, LRF 5 × 10^-10, first series (LRF Control 71.56)
[16] = Molar Conc. 1 × 10^-6, LRF 5 × 10^-10, first series (LRF Control 71.56)
[17] = Molar Conc. 2.5 × 10^-9, LRF 5 × 10^-10, second series of the compound
[18] = Molar Conc. 5 × 10^-9, LRF 5 × 10^-10, second series of the compound
[19] = Molar Conc. 1.2 × 10^-8, LRF 3.5 × 10^-10
[20] = Molar Conc. 2 × 10^-8, LRF 3.5 × 10^-10
[21] = Molar Conc. 2 × 10^-9, LRF 3.5 × 10^-10
[22] = Molar Conc. 4 × 10^-8, LRF 3.5 × 10^-10
[23] = Molar Conc. 4 × 10^-9, LRF 3.5 × 10^-10
[24] = Molar Conc. 7 × 10^-8, LRF 3.5 × 10^-10
[25] = Molar Conc. 7 × 10^-9, LRF 3.5 × 10^-10
[26] = Molar Conc. 1 × 10^-10, LRF 3.5 × 10^-10
[27] = Molar Conc. 2 × 10^-10, LRF 3.5 × 10^-10
[28] = Molar Conc. 3.5 × 10^-9, LRF 3.5 × 10^-10
[29] = Molar Conc. 3.5 × 10^-10, LRF 3.5 × 10^-10

COc1ccc(COC(=O)N[C@@H](COCc2ccccc2)C(=O)N[C@@H](Cc2c[nH]c3ccccc23)C(=O)N[C@@H](CO)C(=O)N[C@@H](Cc2ccc(O)cc2)C(=O)N[C@H](Cc2ccccc2)C(=O)N[C@@H](CC(C)C)C(=O)N[C@@H](CCCNC(=N)N)C(=O)N2CCC[C@H]2C(=O)NCC(N)=O)cc1.Cl [N^α -p-Methoxybenzyloxycarbonyl-O-benzyl-L-seryl-L-tryptophyl-L-seryl-L-tyrosyl-D-phenylalanyl-L-leucyl-L-arginyl-L-prolyl-glycinamide hydrochloride] (X1-S(Bn)WSY[dF]LRPG-NH2)
% LH Release Inhibition [1]: 99%
LH Value [1]: 18.59 ng/mL
% LH Release Inhibition [2]: 105%
LH Value [2]: 15.95 ng/mL
% LH Release Inhibition [3]: 88%
LH Value [3]: 16.01 ng/mL
% LH Release Inhibition [4]: 41%
LH Value [4]: 32.94 ng/mL
% LH Release Inhibition [5]: 35%
LH Value [5]: 34.87 ng/mL
% LH Release Inhibition [6]: 52%
LH Value [6]: 28.95 ng/mL

CC(C)C[C@H](NC(=O)[C@@H](Cc1c[nH]c2ccccc12)NC(=O)[C@H](Cc1ccc(O)cc1)NC(=O)[C@H](CO)NC(=O)[C@H](Cc1c[nH]c2ccccc12)NC(=O)[C@H](COCc1ccccc1)NC(=O)OC(C)(C)C)C(=O)N[C@@H](CCCNC(=N)N)C(=O)N1CCC[C@H]1C(=O)NCC(N)=O [N^α -t-Butoxycarbonyl-O-benzyl-L-seryl-L-tryptophyl-L-seryl-L-tyrosyl-D-tryptophyl-L-leucyl-L-arginyl-L-prolyl-glycinamide] (Boc-S(Bn)WSY[dW]LRPG-NH2)
% LH Release Inhibition [7]: 104%
LH Value [7]: 8.96 ng/mL
% LH Release Inhibition [8]: 64%
LH Value [8]: 21.44 ng/mL
% LH Release Inhibition [9]: 104%
LH Value [9]: 8.95 ng/mL
% LH Release Inhibition [10]: 72%
LH Value [10]: 18.85 ng/mL
% LH Release Inhibition [11]: 39%
LH Value [11]: 29.05 ng/mL
% LH Release Inhibition [12]: 108%
LH Value [12]: 7.80 ng/mL
% LH Release Inhibition [13]: 99%
LH Value [13]: 10.64 ng/mL
% LH Release Inhibition [14]: 50%
LH Value [14]: 25.53 ng/mL

LRF: luteinizing hormone releasing factor, also called luteinizing hormone releasing hormone (LH-RH); stimulates secretion of luteinizing hormone from the anterior pituitary (QHWSYGLRPG; Gonadoliberin-1; UniProt P01148 24-33, looked up) [reference compound]
LH Value (LRF alone, Molar Conc. 3.5 × 10^-10 (control of each series)): 26.23 ng/mL and 40.92 ng/mL and 32.11 ng/mL
LH Value (LRF alone, Molar Conc. 5 × 10^-10 (control of each series)): 71.56 ng/mL and 47.31 ng/mL and 52.80 ng/mL

CC[C@H](C)[C@H](NC(=O)OCc1ccccc1)C(=O)N[C@@H](Cc1c[nH]c2ccccc12)C(=O)N[C@@H](CO)C(=O)N[C@@H](Cc1ccc(O)cc1)C(=O)N[C@H](Cc1c[nH]c2ccccc12)C(=O)N[C@@H](CC(C)C)C(=O)N[C@@H](CCCNC(=N)N)C(=O)N1CCC[C@H]1C(=O)NCC(N)=O [N^α -Benzyloxycarbonyl-L-isoleucyl-L-tryptophyl-L-seryl-L-tyrosyl-D-tryptophyl-L-leucyl-L-arginyl-L-prolyl-glycinamide] (Cbz-IWSY[dW]LRPG-NH2)
% LH Release Inhibition [15]: 96%
LH Value [15]: 20.69 ng/mL
% LH Release Inhibition [16]: 96%
LH Value [16]: 20.24 ng/mL
% LH Release Inhibition [1]: 96%
LH Value [1]: 20.50 ng/mL
% LH Release Inhibition [2]: 95%
LH Value [2]: 21.04 ng/mL
% LH Release Inhibition [3]: 98%
LH Value [3]: 14.00 ng/mL
% LH Release Inhibition [4]: 41%
LH Value [4]: 36.46 ng/mL
% LH Release Inhibition [17]: 70%
LH Value [17]: 24.96 ng/mL
% LH Release Inhibition [18]: 87%
LH Value [18]: 18.49 ng/mL

CC(C)C[C@H](NC(=O)[C@@H](Cc1ccccc1)NC(=O)[C@H](Cc1ccc(O)cc1)NC(=O)[C@H](CO)NC(=O)[C@H](Cc1c[nH]c2ccccc12)NC(=O)[C@H](CCC(N)=O)NC(=O)OCc1ccccc1)C(=O)N[C@@H](CCCNC(=N)N)C(=O)N1CCC[C@H]1C(=O)NCC(N)=O [N^α -Benzyloxycarbonyl-L-glutaminyl-L-tryptophyl-L-seryl-L-tyrosyl-D-phenylalanyl-L-leucyl-L-arginyl-L-prolyl-glycinamide] (Cbz-QWSY[dF]LRPG-NH2)
% LH Release Inhibition [19]: 71%
LH Value [19]: 13.47 ng/mL
% LH Release Inhibition [20]: 90%
LH Value [20]: 10.07 ng/mL
% LH Release Inhibition [21]: 21%
LH Value [21]: 22.43 ng/mL
% LH Release Inhibition [22]: 91%
LH Value [22]: 9.79 ng/mL
% LH Release Inhibition [23]: 30%
LH Value [23]: 20.76 ng/mL
% LH Release Inhibition [24]: 93%
LH Value [24]: 9.49 ng/mL
% LH Release Inhibition [25]: 42%
LH Value [25]: 18.60 ng/mL

CC(C)C[C@H](NC(=O)[C@@H](Cc1ccccc1)NC(=O)[C@H](Cc1ccc(O)cc1)NC(=O)[C@H](CO)NC(=O)[C@H](Cc1c[nH]c2ccccc12)NC(=O)[C@H](COCc1ccccc1)NC(=O)OCc1ccccc1)C(=O)N[C@@H](CCCNC(=N)N)C(=O)N1CCC[C@H]1C(=O)NCC(N)=O.Cl [N^α -Benzyloxycarbonyl-O-benzyl-L-seryl-L-tryptophyl-L-seryl-L-tyrosyl-D-phenylalanyl-L-leucyl-L-arginyl-L-prolyl-glycinamide hydrochloride] (Cbz-S(Bn)WSY[dF]LRPG-NH2)
% LH Release Inhibition [8]: 56%
LH Value [8]: 17.85 ng/mL
% LH Release Inhibition [26]: 0%
LH Value [26]: 34.50 ng/mL
% LH Release Inhibition [21]: 88%
LH Value [21]: 9.84 ng/mL
% LH Release Inhibition [27]: 14%
LH Value [27]: 28.47 ng/mL
% LH Release Inhibition [28]: 99%
LH Value [28]: 6.96 ng/mL
% LH Release Inhibition [29]: 36%
LH Value [29]: 23.09 ng/mL
% LH Release Inhibition [13]: 109%
LH Value [13]: 4.59 ng/mL
% LH Release Inhibition [14]: 52%
LH Value [14]: 18.89 ng/mL
